Our source for the Ki values is patent US7354920B2, “Aryl and heteroaryl morpholine derivatives” (Eli Lilly and Company, priority 2002, dated 2008).

Where a name gives a salt, the structure may show the parent alone. Read-outs that look alike come from different tables or passages of the source.

One may read the Ki as the dissociation constant of the complex between target and ligand, obtained from inhibition or displacement.

This experiment concerns the target T1, human norepinephrine transporter (Homo sapiens, UniProt P23975).
T1 construct: isolate and amplify each of the three full-length cDNAs from an appropriate cDNA library; expressed in transfected cells; host or cells: HEK293 cells, stably transfected (pcDNA3.1-type vector); membranes used
As to the kind of experiment: Scintillation proximity assay, [3H]-nisoxetine binding at the norepinephrine transporter. On the technique in general: Scintillation proximity formats need no separation of bound from free tracer.

T1 sequence (P23975 whole entry): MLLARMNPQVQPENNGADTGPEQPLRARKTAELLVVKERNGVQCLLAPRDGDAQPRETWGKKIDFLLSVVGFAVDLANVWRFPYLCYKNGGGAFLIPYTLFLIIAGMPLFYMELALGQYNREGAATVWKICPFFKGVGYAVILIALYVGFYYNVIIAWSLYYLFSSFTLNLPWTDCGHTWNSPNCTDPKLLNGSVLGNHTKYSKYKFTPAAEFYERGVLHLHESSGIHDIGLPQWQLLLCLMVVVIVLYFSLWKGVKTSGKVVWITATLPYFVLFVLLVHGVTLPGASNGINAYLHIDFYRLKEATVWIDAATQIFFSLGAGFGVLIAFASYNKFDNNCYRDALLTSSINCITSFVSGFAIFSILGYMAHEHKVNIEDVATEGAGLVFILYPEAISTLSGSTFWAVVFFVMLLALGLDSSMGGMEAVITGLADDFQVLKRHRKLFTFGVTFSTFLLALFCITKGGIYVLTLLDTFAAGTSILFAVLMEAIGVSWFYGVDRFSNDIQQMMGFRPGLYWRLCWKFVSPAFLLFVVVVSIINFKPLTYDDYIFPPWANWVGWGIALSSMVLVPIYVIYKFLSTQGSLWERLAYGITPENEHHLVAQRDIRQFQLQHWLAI

`OC(Cc1ccccc1OC(F)(F)F)(c1ccccc1)[C@H]1CNCCO1` (stereo in doubt) [Example 5, (S,R) 1-Morpholin-2-yl-1-phenyl-2-(2-trifluoromethoxy-phenyl)-ethanol hydrochloride]: the Ki (scintillation proximity assay, 3H-nisoxetine, HEK-293 membranes, read-out: NET Ki) was found to be 12.4 nM.

Compound `COc1ccc(F)cc1CC(O)(c1ccccc1)[C@H]1CNCCO1` (stereo in doubt) [Example 8, (S,R) 2-(5-Fluoro-2-methoxy-phenyl)-1-morpholin-2-yl-1-phenyl-ethanol hydrochloride] yielded a Ki of 3.6 nM.
